Consider one substance from patent US20200054581A1, “APPLICATION OF TRPM7 INHIBITORS TO TREAT SLEEP APNEA AND HYPERTENSION IN OBESITY” (THE JOHNS HOPKINS UNIVERSITY, priority 2017, published 2020).

The target in one experiment is T1, TRPM7 (Rattus norvegicus, UniProt Q925B3).
T1 construct: PC12 cells are oxygen-sensitive, express high level of TRPM7; endogenous in cells; host or cells: PC12^LEPRb cells (PC12 transfected with leptin receptor LEPRb; TRPM7 itself not transfected)
The experiment is described as follows: non-selective cation (TRPM7) current, amphotericin-B perforated-patch recording in PC12^LEPRb cells. The class given is cell-based. The note with it: effect of leptin (10-100 ng/ml elsewhere in the source). The text has this: FIG. 5A-5C illustrates leptin enhances TRPM7 current in leptin receptor expressing PC12 cells.
Leptin can regulate TRPM7 channel activity. Leptin exerts its action by binding to the long form of leptin receptors (LEPRb, ObRb), which is the only functional isoform of leptin receptor. The possible effect of leptin on TRPM7 channel activity was investigated, by using LEPRb expressing adrenal pheochromocytoma PC12 (PC12^LEPRb) cells as the cell model, because PC12 cells are oxygen-sensitive, express high level of TRPM7 and have been used widely in the studies of chemoreception. Non-selective cation current was recorded using amphotericin-B perforated-patch technique in the absence of extracellular and intracellular K^+ (replaced by Cs^+) and Mg^2+, after VDCC was blocked by nifedipine and Cl^− currents were inhibited by DIDS and niflumic acid. Voltage-ramp of −100 to +100 mV elicited an outward rectifying current that resembled TRPM7 current reported in other cell types. […] The leptin-induced current was not observed in PC12 cells transfected with a control plasmid (data not shown). The present invention provides the first evidence showing activation of leptin receptor is capable of enhancing TRPM7 activity, and it supports our hypothesis that leptin may enhance CB activity through regulation of TRPM7 activity.
Obesity is a leading cause of high cardiovascular morbidity and mortality. It is characterized by an increased leptin level, which has been implicated in increased sympathetic activity and the pathogenesis of hypertension. However, the mechanism by which leptin enhances sympathetic activity is unclear. Leptin receptors (LEPRs) are expressed in the carotid bodies, the most important arterial chemoreceptors for the cardiovascular-respiratory chemoreflex. Since leptin is known to regulate many different ion channels, we hypothesize that leptin may exert its effects through modulation of TRPM7 channel activity. To test this hypothesis, the inventors used LEPR (LEPRb) expressing pheochromocytoma (PC12^LEPRb) cells, which expresses high levels of TRPM7 channels, as the cell model. Non-selective cation channels were recorded under amphotericin-B perforated-patch techniques with K^+ replaced by Cs^+ in the presence of voltage-gated Ca^2+ channel and Cl^− channel blockers. Voltage-ramp from −100 to 100 mV activated an outward-rectifying current. Removal of extracellular divalent ions enhanced the inward current, consistent with the inward divalent ion selectivity of TRPM7.

The test system of the next experiment is C57BL/6J mice. Kind of experiment: minute ventilation and hypoxic ventilatory response (HVR) in awake lean mice. In kind it is in vivo, mouse. Here is the method: Leptin increases the HVR in lean mice. Minute ventilation (VE) was measured at normoxic conditions and during 3-5 min exposure to 10% O2 in awake lean male C57BL/6J mice, n=4, at baseline and during leptin administration (30 μg/day for 3 days via a subcutaneous osmotic pump). Serum leptin levels increased from 0.8±0.2 ng/ml to 33.2±1.9 ng/ml, which was similar to previously reported in DIO mice and obese humans, and then returned to the baseline. Mice decreased food intake and lost weight. Leptin increased VE at baseline as a result of an increase in the metabolic rate (FIG. 10). Leptin increased the HVR by greater than 60%.
Trpm7 inhibition prevents effects of leptin on the HVR. […] Male C57BL/6J mice (n=2) were treated with leptin for 3 days as described above. After 5 day recovery, leptin and a TRPM7 blocker NS8593 (10 mg/kg/day) were administered subcutaneously via an osmotic pump for 3 days. Mice reduced food intake and lost weight with leptin, regardless of the TRPM7 inhibitor.

Entries after “also recorded” stand apart in the source; their conditions may differ.

T1 sequence (Q925B3 whole entry): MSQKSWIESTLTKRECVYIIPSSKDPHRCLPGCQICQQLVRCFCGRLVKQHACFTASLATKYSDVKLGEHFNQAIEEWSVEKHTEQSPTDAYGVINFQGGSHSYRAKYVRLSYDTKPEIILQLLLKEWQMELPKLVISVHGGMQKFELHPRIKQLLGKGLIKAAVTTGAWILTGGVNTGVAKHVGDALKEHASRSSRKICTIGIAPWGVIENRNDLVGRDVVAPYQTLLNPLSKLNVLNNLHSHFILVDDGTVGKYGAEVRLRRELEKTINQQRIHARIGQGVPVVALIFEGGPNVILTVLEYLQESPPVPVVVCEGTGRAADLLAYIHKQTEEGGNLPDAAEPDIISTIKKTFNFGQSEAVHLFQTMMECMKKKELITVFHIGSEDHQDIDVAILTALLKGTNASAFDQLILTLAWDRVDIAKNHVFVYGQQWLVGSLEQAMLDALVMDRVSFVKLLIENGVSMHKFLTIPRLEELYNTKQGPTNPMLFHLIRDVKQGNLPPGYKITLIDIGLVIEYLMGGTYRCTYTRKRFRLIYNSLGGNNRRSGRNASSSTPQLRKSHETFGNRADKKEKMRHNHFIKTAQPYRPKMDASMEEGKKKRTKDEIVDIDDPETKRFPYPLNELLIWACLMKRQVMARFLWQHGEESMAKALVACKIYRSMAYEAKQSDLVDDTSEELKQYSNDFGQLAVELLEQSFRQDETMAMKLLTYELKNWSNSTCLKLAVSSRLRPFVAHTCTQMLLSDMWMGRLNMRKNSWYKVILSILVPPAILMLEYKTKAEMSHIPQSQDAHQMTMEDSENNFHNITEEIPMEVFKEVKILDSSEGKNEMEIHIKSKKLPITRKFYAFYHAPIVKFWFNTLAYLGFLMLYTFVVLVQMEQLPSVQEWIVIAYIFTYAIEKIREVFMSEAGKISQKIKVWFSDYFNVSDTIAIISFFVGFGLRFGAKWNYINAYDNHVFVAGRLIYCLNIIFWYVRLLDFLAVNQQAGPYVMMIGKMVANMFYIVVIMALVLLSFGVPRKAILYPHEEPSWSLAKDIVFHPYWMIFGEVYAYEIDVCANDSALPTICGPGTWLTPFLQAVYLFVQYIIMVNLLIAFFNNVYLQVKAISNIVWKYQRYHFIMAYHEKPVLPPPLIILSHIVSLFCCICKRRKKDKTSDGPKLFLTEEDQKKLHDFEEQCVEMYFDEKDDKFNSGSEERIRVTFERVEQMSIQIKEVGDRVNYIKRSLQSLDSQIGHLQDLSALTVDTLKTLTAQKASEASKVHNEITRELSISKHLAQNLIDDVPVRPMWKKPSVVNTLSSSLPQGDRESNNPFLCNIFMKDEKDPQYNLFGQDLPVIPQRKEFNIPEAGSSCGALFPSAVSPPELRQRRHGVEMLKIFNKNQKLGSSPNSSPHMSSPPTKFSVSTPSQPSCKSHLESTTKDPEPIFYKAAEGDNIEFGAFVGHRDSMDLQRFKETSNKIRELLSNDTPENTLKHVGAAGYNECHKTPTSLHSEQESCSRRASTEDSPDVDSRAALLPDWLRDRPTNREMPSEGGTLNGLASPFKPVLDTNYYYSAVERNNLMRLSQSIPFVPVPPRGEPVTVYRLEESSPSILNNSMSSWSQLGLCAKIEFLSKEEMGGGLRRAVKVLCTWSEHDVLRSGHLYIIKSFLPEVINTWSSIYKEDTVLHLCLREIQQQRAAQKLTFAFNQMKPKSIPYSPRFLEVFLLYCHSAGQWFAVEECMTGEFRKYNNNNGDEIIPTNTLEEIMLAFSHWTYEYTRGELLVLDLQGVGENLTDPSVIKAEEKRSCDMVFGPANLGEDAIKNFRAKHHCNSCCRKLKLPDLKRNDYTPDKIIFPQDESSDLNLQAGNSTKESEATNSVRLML

Take leptin: an adipocyte-produced hormone: the “outward rectifying non-selective cation (TRPM7) current” value with TRPM7 is “enhances; also recorded: concentration-dependent increase”. In addition, in the experiment on C57BL/6J mice (leptin 30 μg/day for 3 days), the body weight entry was “lost weight” and the food intake result is on record as “decreased”. Besides, the “increase of the HVR” value in the experiment on C57BL/6J mice (leptin 30 μg/day for 3 days, subcutaneous osmotic pump, 10% O2) is reported as “greater than 60%”. Also, the “hypoxic ventilatory response (HVR), in words” value with C57BL/6J mice (leptin infusion) is given as “increased”. For the same substance, the “minute ventilation (VE) at baseline” value in the experiment with C57BL/6J mice (leptin infusion, normoxic) is on record as “increased”.
